Laboratory results as given in patent US20250197343A1, “CATIONIC LIPID” (TAKEDA PHARMACEUTICAL COMPANY LIMITED, priority 2021, published 2025).

Assays:
[1] = Particle size of Luc DNA-encapsulated lipid nanoparticles; type: physicochemical; details: cationic lipid:DPPC:cholesterol:GM-020=60:10.6:28:1.4 molar ratio
From the text: The particle size of the lipid particle (in the composition) can be measured by a known approach. For example, the particle size can be calculated as a Z-average particle size by the cumulant analysis of an autocorrelation function using a particle size measurement apparatus Zetasizer Nano ZS (Malvern Instruments) based on a dynamic light scattering measurement technique. The particle size (average particle size) of the lipid particle (in the composition) is, for example, 10 to 200 nm, preferably 60 to 170 nm.
(§1) A lipid mixture containing a cationic lipid of the Examples shown in Table 2 (cationic lipid:DPPC:cholesterol:GM-020=60:10.6:28:1.4, molar ratio) was dissolved in 90% of EtOH and 10% of water to obtain a 15.0 mg/ml lipid solution. Luciferase (luc) DNA (manufactured by Nature Technology Corp.) was dissolved in a 10 mM MES buffer solution (pH 5.5) to obtain a 0.3 mg/ml nucleic acid solution. The obtained lipid solution and nucleic acid solution were mixed at a flow rate ratio of 3 ml/min:6 ml/min at room temperature using NanoAssemblr (manufactured by Precision NanoSystems Inc.) to obtain a dispersion containing Luc DNA-encapsulated lipid nanoparticles. The obtained dispersion was dialyzed against water at room temperature for 1 hour and against PBS at 4° C. for 23 hours using Slyde-A-Lyzer (molecular weight cutoff: 20 K, Thermo Fischer Scientific Inc.). Subsequently, the dialysate was filtered through a 0.2 µm syringe filter (Iwaki). A 60% solution of sucrose in PBS was added thereto, and the mixture was preserved as a 20% solution of sucrose in PBS at −80° C. Analysis results of particle size and rate of encapsulation of the Luc DNA-encapsulated lipid nanoparticles are also shown in Table 2.

[2] = Rate of encapsulation of Luc DNA in lipid nanoparticles; type: physicochemical; design: unit: %; details: Luc DNA-encapsulated lipid nanoparticles; cationic lipid:DPPC:cholesterol:GM-020=60:10.6:28:1.4 molar ratio
From the text: The concentration and rate of encapsulation of the nucleic acid (e.g., siRNA or mRNA) in the composition of the present invention can be measured by a known approach. For example, the nucleic acid is fluorescently labeled using Quant-iT™ RiboGreen® (Invitrogen Corp.), and the fluorescence intensity can be measured to determine the concentration and the rate of encapsulation. The concentration of the nucleic acid in the composition can be calculated using a calibration curve prepared from aqueous nucleic acid solutions having known concentrations. The rate of encapsulation can be calculated on the basis of the difference in fluorescence intensity between the presence and absence of addition of Triton-X 100 (surfactant for disrupting the lipid particle). The concentration of the nucleic acid in the composition refers to the total concentration of a nucleic acid encapsulated in the lipid particle and an unencapsulated nucleic acid. The rate of encapsulation refers to the ratio of the nucleic acid encapsulated in the lipid particle to all nucleic acids in the composition.
as §1

ICrl:CD1 (ICR) mice = assay: Mouse bioluminescence imaging evaluation (Test Example 1); type: in vivo; details: Luc DNA-encapsulated lipid nanoparticles 10 mL/kg i.v. to ICR mice; IVIS total flux 15 minutes after luciferin i.p.
Description: The Luc DNA-encapsulated lipid nanopatricles obtained in the aforesaid Production Example were intravenously administered to the tails of ICrl:CD1 (ICR) mice (10 mL/kg i.v.). After administration of the lipid particles, luciferin (15 mg/mL) was administered to the mice (10 mL/kg i.p.), which were loaded in an IVIS (in vivo imaging system) apparatus (manufactured by PerkinElmer, Inc.) under isoflurane inhalation anesthesia. Luminescence images of the mice were taken ventrally (in a supine position) 15 minutes after luciferin administration. The luminescence was digitized with the software of IVIS, followed by evaluation using the value of total flux. Higher luminescence means strong expression of the protein encoded by the DNA encapsulate in the lipid particle. In Table 2, higher luminescence is indicated on a scale of A, B and C in order. A represents luminescence of 3.0E+07 or more, B represents luminescence of 1.0E+0.7 or more and less than 3.0E+07, and C represents luminescence of less than 1.0E+07.

Compound	Particle size (nm) [1]	Rate of encapsulation [2]	Luminescence (ICrl:CD1 (ICR) mice)
CCCCCCCOC(=O)CCCCC(=O)OCC(COC(=O)CCCCC(=O)OCCCCCCC)(COC(=O)CCCN(C)C)COC(=O)CC(CCCC)CCCC [Example 84, 1,1′-[2-{[(3-Butylheptanoyl)oxy]methyl}-2-({[4-(dimethylamino)butanoyl]oxy}methyl)propane-1,3-diyl] 6,6′-diheptyl dihexanedioate]	172.6 nm	93.5	B (B represents luminescence of 1.0E+0.7 or more and less than 3.0E+07)
CCCCCCCCCOC(=O)CCCCC(=O)OCC(COC(=O)CCCN(C)C)(COC(=O)CC(CCCCC)CCCCC)COC(=O)CC(CCCCC)CCCCC [Example 50, 2-({[4-(Dimethylamino)butanoyl]oxy}methyl)-3-[(3-pentyloctanoyl)oxy]-2-{[(3-pentyloctanoyl)oxy]methyl}propyl nonyl hexanedioate]	86.5 nm	98.2	B (B represents luminescence of 1.0E+0.7 or more and less than 3.0E+07)
CCCCCCCCCCOC(=O)CC(=O)OCC(COC(=O)CCCN(C)C)(COC(=O)CC(=O)OCCCCCCCCCC)COC(=O)CC(CCCCC)CCCCC [Example 71, 1,1′-Didecyl 3,3′-[2-({[4-(dimethylamino)butanoyl]oxy}methyl)-2-{[(3-pentyloctanoyl)oxy]methyl}propane-1,3-diyl] dipropanedioate]	97.2 nm	92.6	A (A represents luminescence of 3.0E+07 or more)
CCCCCC(CCCCC)CC(=O)OCC(COC(=O)CCCCCCCC(=O)OC)(COC(=O)CCCN(C)C)COC(=O)CC(CCCCC)CCCCC [Example 36, 2-({[4-(Dimethylamino)butanoyl]oxy}methyl)-3-[(3-pentyloctanoyl)oxy]-2-{[(3-pentyloctanoyl)oxy]methyl}propyl methyl nonanedioate]	127.9 nm	95.1	B (B represents luminescence of 1.0E+0.7 or more and less than 3.0E+07)
CCCCCCCOC(=O)CCCCC(=O)OCC(COC(=O)CCN(C)C)(COC(=O)CC(CCCCC)CCCCC)COC(=O)CC(CCCCC)CCCCC [Example 15, 2-{[(N,N-Dimethyl-beta-alanyl)oxy]methyl}-3-[(3-pentyloctanoyl)oxy]-2-{[(3-pentyloctanoyl)oxy]methyl}propyl heptyl hexanedioate]	89.5 nm	95.9	C (C represents luminescence of less than 1.0E+07)
CCCCCCCOC(=O)CCCCC(=O)OCC(COC(=O)CCCCC(=O)OCCCCCCC)(COC(=O)CCCN(CC)CC)COC(=O)CC(CCCCC)CCCCC [Example 14, 1,1′-[2-{{[4-(Diethylamino)butanoyl]oxy}methyl)-2-{[(3-pentyloctanoyl)oxy]methyl}propane-1,3-diyl] 6,6′-diheptyl dihexanedioate]	145.0 nm	94.7	A (A represents luminescence of 3.0E+07 or more)
CCCCCCCOC(=O)CCCCC(=O)OCC(COC(=O)CCCCC(=O)OCCCCCCC)(COC(=O)CCCN(C)C)COC(=O)CC(CCCCCC)CCCCCC [Example 85, 1,1′-[2-({[4-(Dimethylamino)butanoyl]oxy}methyl)-2-{[(3-hexylnonanoyl)oxy]methyl}propane-1,3-diyl] 6,6′-diheptyl dihexanedioate]	148.3 nm	95.4	B (B represents luminescence of 1.0E+0.7 or more and less than 3.0E+07)
CCCCCCCOC(=O)CCCCC(=O)OCC(COC(=O)CCCN(C)C)(COC(=O)CC(CCCCC)CCCCC)COC(=O)CC(CCCCC)CCCCC [Example 16, 2-({[4-(Dimethylamino)butanoyl]oxy}methyl)-3-[(3-pentyloctanoyl)oxy]-2-{[(3-pentyloctanoyl)oxy]methyl}propyl heptyl hexanedioate]	98.4 nm	97.0	B (B represents luminescence of 1.0E+0.7 or more and less than 3.0E+07)

The next lines start with results.

Particle size (nm) [1]	Rate of encapsulation [2]	Compound	Luminescence (ICrl:CD1 (ICR) mice)
161.0 nm	82.0	CCCCCC(CCCCC)CC(=O)OCC(COC(=O)CCCCC(=O)OCC(CCCC)CCCC)(COC(=O)CCCCC(=O)OCC(CCCC)CCCC)COC(=O)CCCN(C)C [Example 117, 1,1′-Bis(2-butylhexyl) 6,6′-[2-({[4-(dimethylamino)butanoyl]oxy}methyl)-2-{[(3-pentyloctanoyl)oxy]methyl}propane-1,3-diyl] dihexanedioate]	B (B represents luminescence of 1.0E+0.7 or more and less than 3.0E+07)
141.8 nm	94.9	CCCCCCCCCOC(=O)CCC(=O)OCC(COC(=O)CCCN(CC)C(C)C)(COC(=O)CCC(=O)OCCCCCCCCC)COC(=O)CC(CCCCC)CCCCC [Example 100]	B (B represents luminescence of 1.0E+0.7 or more and less than 3.0E+07)
80.1 nm	97.1	CCCCCCCCCCC(C(=O)OC)C(=O)OCC(COC(=O)CCCN(CC)C(C)C)(COC(=O)CC(CCCCC)CCCCC)COC(=O)C(CCCCCCCCCC)C(=O)OC (stereo not drawn) [Example 135, 1,1′-(2-[({4-[Ethyl(propan-2-yl)amino]butanoyl}oxy)methyl]-2-{[(3-pentyloctanoyl)oxy]methyl}propane-1,3-diyl) 3,3′-dimethyl bis(decylpropanedioate)]	A (A represents luminescence of 3.0E+07 or more)
82.6 nm	99.1	CCCCCC(CCCCC)COC(=O)CCC(=O)OCC(COC(=O)CCCN(C)C)(COC(=O)CCC(=O)OCC(CCCCC)CCCCC)COC(=O)CC(CCCCC)CCCCC [Example 95, 1,1′-[2-({[4-(Dimethylamino)butanoyl]oxy}methyl)-2-{[(3-pentyloctanoyl)oxy]methyl}propane-1,3-diyl] 4,4′-bis(2-pentylheptyl) dibutanedioate]	B (B represents luminescence of 1.0E+0.7 or more and less than 3.0E+07)
140.5 nm	96.3	CCCCCCCCOC(=O)CCCC(=O)OCC(COC(=O)CCCC(=O)OCCCCCCCC)(COC(=O)CCCN(C)C)COC(=O)CC(CCCCC)CCCCC [Example 98, 1,1′-[2-({[4-(Dimethylamino)butanoyl]oxy}methyl)-2-{[(3-pentyloctanoyl)oxy]methyl}propane-1,3-diyl] 5,5′-dioctyl dipentanedioate]	A (A represents luminescence of 3.0E+07 or more)
137.2 nm	93.2	CCCCCCCCOC(=O)CCCC(=O)OCC(COC(=O)CCCC(=O)OCCCCCCCC)(COC(=O)CCCN(CC)C(C)C)COC(=O)CC(CCCCC)CCCCC [Example 101, 1,1′-(2-[({4-[Ethyl(propan-2-yl)amino]butanoyl}oxy)methyl]-2-{[(3-pentyloctanoyl)oxy]methyl}propane-1,3-diyl) 5,5′-dioctyl dipentanedioate]	A (A represents luminescence of 3.0E+07 or more)
139.8 nm	91.8	CCCCCCOC(=O)CCCCCC(=O)OCC(COC(=O)CCCCCC(=O)OCCCCCC)(COC(=O)CCCN(CC)C(C)C)COC(=O)CC(CCCCC)CCCCC [Example 102, 1,1′-(2-[({4-[Ethyl(propan-2-yl)amino]butanoyl}oxy)methyl]-2-{[(3-pentyloctanoyl)oxy]methyl}propane-1,3-diyl) 7,7′-dihexyl diheptanedioate]	B (B represents luminescence of 1.0E+0.7 or more and less than 3.0E+07)
